Our source for the AC35 values is PubChem BioAssay AID720588 (Broad Institute, 2013).

For the assay, the system named is HEK293T viability, CellTiter-Glo ATP luminescence, 72 h. Briefly: ATP-based viability loss in HEK293T cells – cell-based, CellTiter-Glo luminescence, cherry-pick, set 3, cytotoxicity control, dose response (AID 720588).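 Also: potency for luminescence loss meaning cytotoxic compounds.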 In general terms: Cellular ATP, detected with luciferase, serves as a proxy for viable cell number.
In the case of `C[C@]12CC[C@H](O)C[C@H]1CC[C@@H]1C2CC[C@]2(C)[C@@H](C3=CC(=O)OC3)[C@@H](O)C[C@]12O` (some centres not stated), the AC35 is 1.86 µM. As for `COc1ccc([Si](C)(C)[C@H]2[C@H](CCO)O[C@@]3(C(=O)N(c4ccccc4)c4ccccc43)[C@@H]2C)cc1`, the AC35 was 15 µM. For the compound `Cc1ccc(C(C)C)c(OCc2ccc(C(=O)N/N=C/c3ccc(O)cc3O)cc2)c1`, the AC35 is 4.02 µM. As to `C[C@H]1O[C@@H](O[C@H]2[C@@H](O)C[C@H](O[C@H]3[C@@H](O)C[C@H](O[C@H]4CC[C@@]5(C)[C@H](CC[C@@H]6[C@@H]5C[C@@H](O)[C@]5(C)[C@@H](C7=CC(=O)OC7)CC[C@]65O)C4)O[C@@H]3C)O[C@@H]2C)C[C@H](O)[C@@H]1O`, the AC35 is 0.0823 µM.

`COC(=O)C1=C(C)N(Cc2cccc(C(F)(F)F)c2)C(=NCc2ccc(OC)cc2)NC1c1cccc(F)c1` (configuration not stated): the AC35 was 4.96 µM. For `C[C@@H]1CCCCO[C@H](CN(C)Cc2ccc(C(F)(F)F)cc2)[C@H](C)CN([C@H](C)CO)C(=O)c2cc(NC(=O)CCCN(C)C)ccc2O1`, the AC35 is 14.6 µM. `Nc1nc(=S)c2[nH]cnc2[nH]1`: the AC35 was 5.79 µM. Regarding `COc1ccc(S(=O)(=O)Nc2ccc3c(c2)C(=O)N([C@H](C)CO)C[C@@H](C)[C@@H](CN(C)Cc2ccc(C(=O)Nc4ccccc4N)cc2)O3)cc1`, the AC35 is 15 µM. For the compound `O=C(Nc1ccc(F)cc1)N1CCCCN2[C@@H](CO)[C@H](c3ccc(C4=CCCCC4)cc3)[C@@H]2C1`, the AC35 was 9.39 µM. To `C=C1C(=O)C=C[C@]2(C)C[C@@H]3OC(=O)[C@](C)(O)[C@H]3C[C@@H]12` belongs 8.77 µM; to `C[C@@H]1CCCCO[C@H](CN(C)Cc2ccc(C(=O)Nc3ccccc3N)cc2)[C@@H](C)CN([C@H](C)CO)C(=O)c2cc(NS(=O)(=O)c3ccc(F)cc3)ccc2O1`, 13.3 µM. As to `COC(=O)C[C@H]1CC[C@@H]2[C@H](COc3ccc(NC(=O)Nc4cccc(Cl)c4)cc3C(=O)N2C)O1`, the AC35 is 17.8 µM. For `COc1ccccc1C(CCNCc1ccc(N(C)C)cc1)c1ccc(OC(C)C)cc1` (configuration not stated), the AC35 is 10.7 µM.

For `CN(C)c1ccc(N=Nc2nc3ccccc3n2C)cc1`, the AC35 is 12.5 µM. As for `C[C@@H]1CN([C@H](C)CO)C(=O)Cc2cc(NC(=O)CCCCCC(=O)Nc3ccccc3N)ccc2O[C@@H]1CN(C)CC1CCCCC1`, the AC35 was 20.1 µM. For `CN(C)CC1CCC/C(=C\c2ccc(OC(=O)c3ccc(Cl)cc3)cc2)C1=O` (configuration not stated), the AC35 was 11.3 µM. For the compound `N/C(=C\C(=O)c1cc(Cl)ccc1O)C(Cl)(Cl)Cl`, the AC35 was 14.7 µM. In the case of `C[C@@H]1CN([C@@H](C)CO)S(=O)(=O)c2ccc(C#CC(C)(C)O)cc2O[C@H]1CN(C)Cc1ccc(-c2ccccc2)cc1`, the AC35 was 6.7 µM. To `OC[C@H]1[C@@H](c2ccc(C#CC3CCCC3)cc2)[C@@H]2CN(CCC(F)(F)F)CCCCN12` belongs 10.4 µM. As for `C[C@@H]1CN([C@@H](C)CO)C(=O)c2cc(NS(=O)(=O)c3ccc(F)cc3)ccc2O[C@@H]1CN(C)Cc1ccc(C(=O)Nc2ccccc2N)cc1`, the figure is 7.54 µM; as for `CCCN1C/C(=C/c2ccc3c(c2)OCO3)C(=O)/C(=C/c2ccc3c(c2)OCO3)C1`, 21.2 µM; as for `Cc1ccc(S(=O)(=O)Nc2ccc3c(c2)C(=O)N([C@@H](C)CO)C[C@H](C)[C@@H](CN(C)Cc2ccc(C(F)(F)F)cc2)OCCCC[C@@H](C)O3)cc1`, 12.8 µM. `C[C@@H]1CN([C@@H](C)CO)C(=O)Cc2cc(NC(=O)Nc3ccc(C(F)(F)F)cc3)ccc2O[C@@H]1CN(C)Cc1ccc(C(=O)Nc2ccccc2N)cc1`: the AC35 was 17.4 µM.

With `C[C@@H]1CN([C@H](C)CO)C(=O)c2cc(N(C)C)ccc2O[C@H]1CN(C)Cc1ccc(C(=O)Nc2ccccc2N)cc1`, the AC35 is 16.5 µM. To `C(=N\Nc1ccc2ccccc2n1)/c1ccc2c(c1)OCCO2` belongs 10.4 µM.

Consider `C[C@@H]1CN([C@H](C)CO)C(=O)c2cc(NC(=O)c3ccccc3)ccc2O[C@@H](C)CCCCO[C@H]1CN(C)C(=O)Nc1cccc2ccccc12`, for which the AC35 was 2.06 µM. To `C(=N\Nc1nc2ccccc2s1)/c1ccccn1` belongs 3.56 µM.
